Here are results for 4 molecules from the supplement of paper PMC11061612.

The test system of assay [1] is NCI-H1355 (Lung Adenocarcinoma). The assay can be described thus: combination Emax (second highest fraction inhibited in the dose matrix, 72 h); higher = more inhibition; extreme values may be limits of the assay. The essentials:
(§1)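 Cell lines grown in DMEM/F12 or RPMI with 10% FBS were plated in 1536-well plates and held 24 hours at 37°C, 5% CO2 before 72 hours of exposure to two-drug dose matrices, with DMSO typically at 0.2%. CellTiter-Glo 2.0 luminescence gave viability, which was converted to inhibition. Vehicle wells were set to 0 and blank wells to 1. Combination Emax is the second-highest inhibition in the matrix, and Bliss excess is the observed combination effect minus the expected EA + EB − EA·EB, where EA and EB are the single-agent effects.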

In assay [2] the test system is SK-N-AS (Neuroblastoma). Described as above. In a few lines: as §1
Assay [3] has as its system SW982 (Other Solid Carcinomas). Described as above. In a few lines: as §1
For assay [4], the system named is MV-4-11 (Acute Myeloid Leukemia). The assay is described as above. The essentials: as §1
The subject of assay [5] is Ca-Ski (Cervical Carcinoma). Briefly: Bliss excess, mean over the matrix (fraction); higher = more synergy. The essentials: as §1
Assay [6] concerns KGN (Other Solid Carcinomas). The assay is described as above. In a few lines:
as §1

Assay [7] concerns DU-145 (Prostate Carcinoma). Described as above. In a few lines:
as §1

Assay [8] concerns NCI-H1355 (Lung Adenocarcinoma). The assay is described as above. In a few lines: as §1
For assay [9], the system named is Mo-T (Other Blood Carcinomas). The description is as above. In a few lines:
as §1

Assay [10] concerns SKN (Other Solid Carcinomas). The description is as above. The essentials: as §1
For assay [11], the system named is SK-N-AS (Neuroblastoma). The description is as above. The essentials:
as §1

Assay [12] relates to OE33 (Esophageal Adenocarcinoma). Described as above. The essentials: as §1
Assay [13] concerns MOLT-4 (T-Lymphoblastic Leukemia). Described as above. The essentials:
as §1

The subject of assay [14] is NCI-H522 (Lung Adenocarcinoma). Described as above. In a few lines:
as §1

In assay [15] the test system is SW872 (Other Solid Carcinomas). The description is as above. In a few lines:
as §1

Assay [16] relates to KMRC-1 (Kidney Carcinoma). Described as above. The essentials: as §1
The test system of assay [17] is MOG-G-UVW (Low Grade Glioma). Described as above. The essentials:
as §1

For assay [18], the system named is NCI-H1993 (Lung Adenocarcinoma). Described as above. The essentials:
as §1

The test system of assay [19] is EFO-21 (Ovarian Carcinoma). The description is as above. In a few lines: as §1
The subject of assay [20] is MDA-MB-453 (Breast Carcinoma). Described as above. The essentials:
as §1
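Wherever Bliss excess, mean over the matrix is given: after 72 h of two-drug dosing.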

As to `N#Cc1cnc(Nc2cc(NC[C@H]3CNCCO3)c(C(F)(F)F)cn2)cn1` [SRA737] + Nc1ccn([C@@H]2O[C@H](CO)[C@@H](O)C2(F)F)c(=O)n1 [Gemcitabine] (first compound max 10 µM, 7x7, partner max 0.3 µM), the “combination Emax” value in assay [1] is 0.644; in the assay with SK-N-AS (Neuroblastoma) [2] it was 0.712; in [3], 0.905; in assay [4] it was 1. Also, the Bliss excess in [5] is 0.0666; in [6], 0.0342; in [7], 0.0276; in assay [8], 0.0299; in assay [9], -0.0134; in assay [10] it was -0.0073. The Bliss excess with SK-N-AS (Neuroblastoma) [11] was -0.0283; in assay [12] it was 0.0039; in assay [13], 0.0522; in assay [14], 0.102; in [15], 0.0236; in [16] it was 0.042. Further, the Bliss excess in [17] is 0.0876; in assay [18], 0.0158; in assay [19] it was 0.0169; in assay [20], -0.0075.

In the case of `N#Cc1cnc(Nc2cc(NC[C@H]3CNCCO3)c(C(F)(F)F)cn2)cn1` [SRA737] + O=c1[nH]cc(F)c(=O)[nH]1 [5-Fluorouracil] (first compound max 10 µM, 7x7, partner max 20 µM), the “combination Emax” value in assay [1] stood at 0.517; in the assay with SK-N-AS (Neuroblastoma) [2] it was 0.565; in assay [3], 0.679; in [4], 0.967. In addition, the Bliss excess is 0.0604 in assay [5]; 0.002 in assay [6]; 0.0735 in assay [7]; 0.0349 in [8]; 0.0056 in assay [9]; -0.0266 in assay [10]. Also, the Bliss excess in the assay with SK-N-AS (Neuroblastoma) [11] was -0.0291; in assay [12] it was 0.0184; in assay [13], 0.013; in assay [14] it was -0.0524; in assay [15], 0.0629; in assay [16] it was 0.0038. Moreover, the Bliss excess in assay [17] was 0.0006; in assay [18] it was 0.059; in [19], -0.006; in [20], 0.108.

`C[C@@H](c1ccc2nccn2c1)n1nnc2ncc(-c3cnn(C)c3)nc21` [Savolitinib] + CC1(C)CCC(CN2CCN(c3ccc(C(=O)NS(=O)(=O)c4ccc(NCC5CCOCC5)c([N+](=O)[O-])c4)c(Oc4cnc5[nH]ccc5c4)c3)CC2)=C(c2ccc(Cl)cc2)C1 [Venetoclax] (first compound max 1 µM, 7x7, partner max 1 µM): the “combination Emax” value in assay [1] was 0.137; in the assay on SK-N-AS (Neuroblastoma) [2], 0.12; in assay [3], 0.128; in [4] it was 1. Further, the Bliss excess in [5] is -0.0475; in assay [6], -0.0249; in assay [7], -0.0339; in [8], -0.0398; in assay [9], -0.0492; in [10], -0.0442. The Bliss excess was -0.0568 in the assay with SK-N-AS (Neuroblastoma) [11]; 0.001 in [12]; 0.0879 in assay [13]; -0.0504 in [14]; -0.0203 in [15]; -0.0899 in assay [16]. In addition, the Bliss excess in [17] was 0.0069; in assay [18], -0.0306; in assay [19], -0.0679; in [20], -0.0173.

On to `C[C@@H](c1ccc2nccn2c1)n1nnc2ncc(-c3cnn(C)c3)nc21` [Savolitinib] + Cc1c2c(nn1C)CSCc1cc(n(C)n1)CSc1cc(c3ccccc3c1)OCCCc1c(C(=O)O)n(C)c3c-2c(Cl)ccc13 [AZD5991] (first compound max 1 µM, 7x7, partner max 1 µM), for which the “combination Emax” value in assay [1] came out at 0.207; in the assay with SK-N-AS (Neuroblastoma) [2], 0.314; in [3] it was 0.119; in [4], 1. The Bliss excess in assay [5] was -0.0287; in assay [6], -0.0302; in assay [7], -0.0361; in assay [8] it was -0.0155; in assay [9] it was -0.056; in assay [10], -0.0279. The Bliss excess in the assay on SK-N-AS (Neuroblastoma) [11] was -0.0749; in [12], -0.0152; in [13], 0.0706; in assay [14] it was -0.0353; in assay [15] it was 0.003; in assay [16], -0.0473. Further, the Bliss excess is 0.0359 in assay [17], -0.0338 in assay [18], -0.0454 in assay [19] and 0.0354 in assay [20].
